Laboratory results as given in PubChem BioAssay AID1918991 (Molecular Pharmacology Branch, DTP, NCI, 2023).

Tested on: 186277-243-T-J2-PDC complex spheroid growth
Assay: Anticancer human tumor 186277-243-T-J2-PDC patient-derived colon adenocarcinoma cell line growth inhibition [AhR]
Settings: for IC50: curve of first compound; for viability, T/C: stronger effect = lower value
Method in brief: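 Agents were dosed in half-log steps down from roughly clinical Cmax, or from 10 microM where Cmax was unknown, alone and with AhR antagonists. Read-out: percent test/control growth of tumor spheroids containing HUVEC and MSC stromal cells.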

[1] = second compound 0.1 µM, first compound 0.0316 µM
[2] = second compound 0.1 µM, first compound 0.1 µM
[3] = second compound 0.1 µM, first compound 0.316 µM
[4] = second compound 0.1 µM, first compound 1 µM
[5] = second compound 0.1 µM, first compound 3.16 µM
[6] = second compound 0.1 µM, first compound 10 µM
[7] = second compound 0.316 µM, first compound 0.0316 µM
[8] = second compound 0.316 µM, first compound 0.1 µM
[9] = second compound 0.316 µM, first compound 0.316 µM
[10] = second compound 0.316 µM, first compound 1 µM
[11] = second compound 0.316 µM, first compound 3.16 µM
[12] = second compound 0.316 µM, first compound 10 µM
[13] = second compound 1 µM, first compound 0.0316 µM
[14] = second compound 1 µM, first compound 0.1 µM
[15] = second compound 1 µM, first compound 0.316 µM
[16] = second compound 1 µM, first compound 1 µM
[17] = second compound 1 µM, first compound 3.16 µM
[18] = second compound 1 µM, first compound 10 µM
[19] = second compound 3.16 µM, first compound 0.0316 µM
[20] = second compound 3.16 µM, first compound 0.1 µM
[21] = second compound 3.16 µM, first compound 0.316 µM
[22] = second compound 3.16 µM, first compound 1 µM
[23] = second compound 3.16 µM, first compound 3.16 µM
[24] = second compound 3.16 µM, first compound 10 µM
[25] = second compound 10 µM, first compound 0.0316 µM
[26] = second compound 10 µM, first compound 0.1 µM
[27] = second compound 10 µM, first compound 0.316 µM
[28] = second compound 10 µM, first compound 1 µM
[29] = second compound 10 µM, first compound 3.16 µM
[30] = second compound 10 µM, first compound 10 µM
[31] = second compound 0.1 µM, first compound 0.00316 µM
[32] = second compound 0.1 µM, first compound 0.01 µM
[33] = second compound 0.316 µM, first compound 0.00316 µM
[34] = second compound 0.316 µM, first compound 0.01 µM
[35] = second compound 1 µM, first compound 0.00316 µM
[36] = second compound 1 µM, first compound 0.01 µM
[37] = second compound 3.16 µM, first compound 0.00316 µM
[38] = second compound 3.16 µM, first compound 0.01 µM
[39] = second compound 10 µM, first compound 0.00316 µM
[40] = second compound 10 µM, first compound 0.01 µM
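Note: spheroids exposed to compounds for seven days before the viability read.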
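Throughout, for viability, T/C: luminescent signal used as a stand-in for viable cell amount; 100% = DMSO vehicle control wells.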

Row | SMILES | IC50 (second compound 0.1 µM) | IC50 (second compound 0.316 µM) | IC50 (second compound 1 µM) | IC50 (second compound 3.16 µM) | IC50 (second compound 10 µM) | viability, T/C [1] | viability, T/C [2] | viability, T/C [3] | viability, T/C [4] | viability, T/C [7] | viability, T/C [8] | viability, T/C [9] | viability, T/C [10] | viability, T/C [13] | viability, T/C [14] | viability, T/C [15] | viability, T/C [19] | viability, T/C [20] | viability, T/C [25] | viability, T/C [26] | further results
1 | CC(C)c1c(-c2ccccc2)nc2c(C#N)c[nH]n2c1=O + CC(CO)NC(=O)c1cc(-c2ccc(Cl)cc2)nn(-c2cnn(C)c2)c1=O | > 10000 nM | > 10000 nM | > 10000 nM | > 10000 nM | > 10000 nM | 95.2% | 93.5% | 88.4% | 95.5% | 99.5% | 100% | 109% | 92.9% | 104% | 113% | 105% | 92.2% | 85.1% | 90.2% | 85.1% | viability, T/C [5]: 89.5%; viability, T/C [6]: 79.6%; viability, T/C [11]: 99.2%; viability, T/C [12]: 91.7%; viability, T/C [16]: 104%; viability, T/C [17]: 86.4%; viability, T/C [18]: 93.8%; viability, T/C [21]: 91.9%; viability, T/C [22]: 89.8%; viability, T/C [23]: 87.3%; viability, T/C [24]: 95%; viability, T/C [27]: 81.8%; viability, T/C [28]: 85.5%; viability, T/C [29]: 76.9%; viability, T/C [30]: 87.3%
2 | COc1cccc2c1C(=O)c1c(O)c3c(c(O)c1C2=O)CC(O)(C(=O)CO)CC3OC1CC(N)C(O)C(C)O1 (stereo not given) + Cc1ccccc1N=Nc1ccc(NC(=O)c2ccnn2C)c(C)c1 | 456 nM | 446 nM | 487 nM | 463 nM | 440 nM | 158% | 147% | 71% | 4.6% | 161% | 138% | 70% | 4.18% | 161% | 136% | 77.1% | 152% | 133% | 131% | 120% | viability, T/C [5]: 0.4%; viability, T/C [6]: 0.61%; viability, T/C [11]: 0.3%; viability, T/C [12]: 1.25%; viability, T/C [16]: 4.8%; viability, T/C [17]: 0.42%; viability, T/C [18]: 0.91%; viability, T/C [21]: 72.9%; viability, T/C [22]: 3.91%; viability, T/C [23]: 0.08%; viability, T/C [24]: 1.27%; viability, T/C [27]: 68.9%; viability, T/C [28]: 2.85%; viability, T/C [29]: 0.25%; viability, T/C [30]: 0.52%
3 | Nc1ncn(C2CC(O)C(CO)O2)c(=O)n1 (stereo not given) + Cc1ccccc1N=Nc1ccc(NC(=O)c2ccnn2C)c(C)c1 | > 1000 nM | > 1000 nM | > 1000 nM | > 1000 nM | > 1000 nM | 105% | 112% | 103% | 143% | 108% | 115% | 120% | 144% | 102% | 128% | 119% | 101% | 105% | 103% | 109% | viability, T/C [31]: 115%; viability, T/C [32]: 108%; viability, T/C [33]: 118%; viability, T/C [34]: 96.8%; viability, T/C [35]: 100%; viability, T/C [36]: 102%; viability, T/C [16]: 144%; viability, T/C [37]: 103%; viability, T/C [38]: 128%; viability, T/C [21]: 113%; viability, T/C [22]: 122%; viability, T/C [39]: 90.2%; viability, T/C [40]: 97.2%; viability, T/C [27]: 104%; viability, T/C [28]: 103%

More lines, main results first:

Row | IC50 (second compound 0.1 µM) | IC50 (second compound 0.316 µM) | IC50 (second compound 1 µM) | IC50 (second compound 3.16 µM) | IC50 (second compound 10 µM) | SMILES | viability, T/C [1] | viability, T/C [2] | viability, T/C [3] | viability, T/C [4] | viability, T/C [7] | viability, T/C [8] | viability, T/C [9] | viability, T/C [10] | viability, T/C [13] | viability, T/C [14] | viability, T/C [15] | viability, T/C [19] | viability, T/C [20] | viability, T/C [25] | viability, T/C [26] | further results
4 | 3230 nM | 3710 nM | 3030 nM | 2560 nM | 1620 nM | COc1ccc([C@@H](O)c2cc(-c3ncnc4cc(N5CCOCC5)ccc34)c(F)cc2Cl)nn1 + CC(CO)NC(=O)c1cc(-c2ccc(Cl)cc2)nn(-c2cnn(C)c2)c1=O | 105% | 96.3% | 96.8% | 73.5% | 109% | 98.8% | 84.2% | 85.1% | 95.5% | 95.6% | 87.3% | 88.3% | 95.7% | 88.8% | 72.6% | viability, T/C [5]: 51.6%; viability, T/C [6]: 20.7%; viability, T/C [11]: 53.9%; viability, T/C [12]: 18.4%; viability, T/C [16]: 78.8%; viability, T/C [17]: 48.4%; viability, T/C [18]: 19.1%; viability, T/C [21]: 87%; viability, T/C [22]: 74.8%; viability, T/C [23]: 44.5%; viability, T/C [24]: 18.1%; viability, T/C [27]: 78.9%; viability, T/C [28]: 64%; viability, T/C [29]: 30.7%; viability, T/C [30]: 15.6%
5 | > 100 nM | > 100 nM | > 100 nM | > 100 nM | > 100 nM | CC[C@@]1(O)C(=O)OCc2c1cc1n(c2=O)Cc2cc3c(CN(C)C)c(O)ccc3nc2-1 + Cc1ccccc1N=Nc1ccc(NC(=O)c2ccnn2C)c(C)c1 | 119% | 113% | – | – | 114% | 105% | – | – | 116% | 119% | – | 107% | 104% | 90.5% | 99.3% | viability, T/C (second compound 0.1 µM, first compound 0.000316 µM): 97.7%; viability, T/C (second compound 0.1 µM, first compound 0.001 µM): 113%; viability, T/C [31]: 107%; viability, T/C [32]: 133%; viability, T/C (second compound 0.316 µM, first compound 0.000316 µM): 113%; viability, T/C (second compound 0.316 µM, first compound 0.001 µM): 101%; viability, T/C [33]: 113%; viability, T/C [34]: 115%; viability, T/C (second compound 1 µM, first compound 0.000316 µM): 97.8%; viability, T/C (second compound 1 µM, first compound 0.001 µM): 103%; viability, T/C [35]: 110%; viability, T/C [36]: 123%; viability, T/C (second compound 3.16 µM, first compound 0.000316 µM): 94.9%; viability, T/C (second compound 3.16 µM, first compound 0.001 µM): 92.9%; viability, T/C [37]: 116%; viability, T/C [38]: 135%; viability, T/C (second compound 10 µM, first compound 0.000316 µM): 81.8%; viability, T/C (second compound 10 µM, first compound 0.001 µM): 92.2%; viability, T/C [39]: 98.1%; viability, T/C [40]: 117%
6 | 8920 nM | 7740 nM | 7570 nM | 7220 nM | 7390 nM | COc1cc(C2c3cc4c(cc3C(OC3OC5COC(C)OC5C(O)C3O)C3COC(=O)C23)OCO4)cc(OC)c1O (stereo not given) + Cc1ccccc1N=Nc1ccc(NC(=O)c2ccnn2C)c(C)c1 | 87.1% | 103% | 142% | 99.7% | 98.5% | 117% | 145% | 96.1% | 113% | 124% | 144% | 94.8% | 106% | 102% | 104% | viability, T/C [5]: 81%; viability, T/C [6]: 46.5%; viability, T/C [11]: 78.6%; viability, T/C [12]: 42%; viability, T/C [16]: 93.6%; viability, T/C [17]: 76.2%; viability, T/C [18]: 41.7%; viability, T/C [21]: 137%; viability, T/C [22]: 94.6%; viability, T/C [23]: 72.8%; viability, T/C [24]: 41.2%; viability, T/C [27]: 118%; viability, T/C [28]: 93.6%; viability, T/C [29]: 71.7%; viability, T/C [30]: 42.4%
